Results on eleven molecules are retold here after patent US6514997B2, “Antipicornaviral compounds and compositions, their pharmaceutical uses, and materials for their synthesis” (Agouron Pharmaceuticals, Inc., priority 1999, dated 2003).

Data set [1] has as its system HRV-14. In words: Antirhinoviral H1-HeLa cell culture assay (XTT cell protection, EC50), HRV-14. The class given is cell-based, human rhinovirus (HRV) serotype-14 in H1-HeLa cells. The procedure: (§1) Antirhinoviral H1-HeLa Cell Culture Assay:
(§2) In this cell protection assay, the ability of compounds to protect cells against HRV infection was measured by the XTT dye reduction method, which is described in Weislow et al., J. Natl. Cancer Inst. […] H1-HeLa cells were infected with HRV-14 at a multiplicity of infection (m.o.i.) of 0.13 (virus particles/cell) or mock-infected with medium only. Infected or mock-infected cells were resuspended at 8×10^5 cells per mL, and incubated with appropriate concentrations of the compounds to be tested. Two days later, XTT/PMS was added to test plates and the amount of formazan produced was quantified spectrophotometrically at 450/650 nm. […] The therapeutic index (TI) was calculated by dividing the CC50 value by the EC50 value.
(§3) All strains of human rhinovirus (HRV) for use in this assay were purchased from American Type Culture Collection (ATCC), except for HRV serotype-14 (produced from the infectious cDNA clone constructed by Dr. Robert Rueckert, Institute for Molecular Virology, University of Wisconsin, Madison, Wis.). HRV stocks were propagated and viral assays were performed in H1-HeLa cells (ATCC). Cells were grown in minimal essential medium with 10% fetal bovine serum, available from Life Technologies (Gaithersburg, Md.).
Background: Tetrazolium assays rely on reduction of a dye to a coloured formazan, in cell work by metabolically active cells.

Data set [2] relates to strains of human rhinovirus (HRV). In words: Antirhinoviral H1-HeLa cell culture assay (XTT cell protection, EC50), other HRV strains. The note with it: read-out: EC50. The class given is cell-based, human rhinovirus in H1-HeLa cells. On the procedure:
as §1
In this cell protection assay, the ability of compounds to protect cells against HRV infection was measured by the XTT dye reduction method, which is described in Weislow et al., J. Natl. Cancer Inst. (1989), vol. 81, 577-586. H1-HeLa cells were infected with HRV-14 at a multiplicity of infection (m.o.i.) of 0.13 (virus particles/cell) or mock-infected with medium only. Infected or mock-infected cells were resuspended at 8×10^5 cells per mL, and incubated with appropriate concentrations of the compounds to be tested. Two days later, XTT/PMS was added to test plates and the amount of formazan produced was quantified spectrophotometrically at 450/650 nm. […] The therapeutic index (TI) was calculated by dividing the CC50 value by the EC50 value.
as §3

In data set [3] the test system is H1-HeLa cells. In words: Cytotoxicity (CC50) in mock-infected H1-HeLa cells, XTT dye reduction. The class given is cell-based, human. The procedure: as §2, §3
(§4) Coxsackievirus types A-21 (CAV-21) and B3 (CVB3) were purchased from American Type Culture Collection (ATCC, Rockville, Md.). Virus stocks were propagated and antiviral assays were performed in H1-HeLa cells (ATCC). Cells were grown in minimal essential medium with 10% fetal bovine serum (Life Technologies, Gaithersburg, Md.). The ability of the compounds of this invention to protect cells against either CAV-21 or CVB3 infection was measured by the XTT dye reduction method. This method is described in Weislow et al., J. Natl. Cancer Inst. […] H1-HeLa cells were infected with CAV-21 or CVB3 at a multiplicity of infection (m.o.i.) of 0.025 or 0.075, respectively, or mock-infected with medium only. H1-HeLa cells were plated at 4×10^4 cells per well in a 96-well plate and incubated with appropriate concentrations of the test compound. One day (CVB3) or two days (CAV-21) later, XTT/PMS was added to test plates and the amount of formazan produced was quantified spectrophotometrically at 450/650 nm. […] The therapeutic index (TI) was calculated by dividing the CC50 by the EC50.

The target of data set [4] is T1, Recombinant rhinovirus 3C protease, serotype 14 (Human rhinovirus 14, UniProt P03303).
T1 construct: Recombinant rhinovirus 3C proteases; made in house
T1 sequence (P03303 1538-1719): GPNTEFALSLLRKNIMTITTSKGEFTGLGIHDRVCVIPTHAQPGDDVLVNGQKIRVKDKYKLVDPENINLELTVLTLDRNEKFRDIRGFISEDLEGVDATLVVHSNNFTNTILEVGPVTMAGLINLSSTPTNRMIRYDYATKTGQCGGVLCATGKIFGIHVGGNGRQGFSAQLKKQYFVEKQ
In words: Inhibition of rhinovirus 3C protease (FRET assay, kobs/[I]), serotype 14. The class given is biochemical. The note with it: for kinact/KI: pH 7.6, read-out: kobs/[I] (3C protease inhibition activity). On the procedure: Inhibition of Rhinovirus 3C Protease:
Stock solutions (50 mM, in DMSO) of various compounds were prepared; dilutions were in the same solvent. Recombinant rhinovirus 3C proteases (see Birch et al., “Purification of recombinant human rhinovirus 14 3C protease expressed in Escherichia coli,” Protein Expr. Pur. (1995), vol. 6(5), 609-618) from serotypes 14, 16, and 2 were prepared by the following standard chromatographic procedures: (1) ion exchange using Q Sepharose Fast Flow from Pharmacia; (2) affinity chromatography using Affi-Gel Blue from Biorad; and (3) sizing using Sephadex G-100 from Pharmacia. Each assay sample contained 2% DMSO, 50 mM tris pH 7.6, 1 mM EDTA, a test compound at the indicated concentration, approximately 1 μM substrate, and 50-100 nM protease. The kobs/I values were obtained from reactions initiated by addition of enzyme rather than substrate. RVP activity was measured in the fluorescence resonance energy transfer assay. The substrate was (N-terminal) DABCYL-([…]-EDANS. In the uncleaved peptide, the EDANS fluorescence was quenched by the proximal DABCYL moiety. When the peptide was cleaved, the quenching was relieved, and activity was measured as an increase in fluorescence signal. The tabulated data in the column designated kobs/[I] were measured from progress curves in enzyme start experiments.

A short description of data set [5]: Cytotoxicity (CC50) in mock-infected H1-HeLa cells, XTT dye reduction. The class given is cell-based, human. The note with it: human, H1-HeLa cells, mock-infected; line of HRV-14. On the procedure: as §2, §3, §4

Where two headings read alike, the source gives them in different places. Where only a bound is given, the exact number is not on record here.

The term EC50 denotes the concentration giving half of the maximal effect. Broadly, the CC50 is the concentration that lowers cell viability or growth by half. Lower therefore signals greater toxicity to the cells. On to `C#CC[C@@H](C(=O)N[C@H](/C=C/C(=O)OCC(C)(C)C)C[C@@H]1CCNC1=O)n1cccc(NC(=O)c2cc(C)on2)c1=O` (relative stereo) [Compound 32, trans-(2′S,3″″S,4S)-4-(2′-{3″-[(5′″-Methylisoxazole-3′″-carbonyl)amino]-2″-oxo-2″H-pyridin-1″-yl}-pent-4′-ynoylamino)-5-(2″″-oxopyrrolidin-3″″-yl)pent-2-enoic acid 2,2-Dimethylpropyl Ester], for which the EC50 turned out to be 126 nM in data set [1] (HRV-14, read-out: EC50); 179 nM in data set [2] (HRV-1A); 105 nM in data set [2] (HRV-2); 59 nM in data set [2] (HRV-3); 500 nM in data set [2] (HRV-9); 156 nM in data set [2] (HRV-10). Moreover, the EC50 in data set [2] (HRV-16) is 184 nM; in data set [2] (HRV-25), 547 nM; in data set [2] (HRV-39), 410 nM; in data set [2] (HRV-87), 33 nM. Also, the CC50 in data set [3] (line of HRV-1A), in data set [3] (line of HRV-2), in data set [3] (line of HRV-3), in data set [3] (line of HRV-9), in data set [3] (line of HRV-10) and in data set [3] (line of HRV-14) was over 10000 nM in each case. Further, the CC50 in data set [3] (line of HRV-16), in data set [3] (line of HRV-25), in data set [3] (line of HRV-39) and in data set [3] (line of HRV-87) was over 10000 nM each time. The “kobs/[I] (3C protease inhibition activity)” value in data set [4] (HRV-14) was 127,500 M^−1s^−1.
Take `CCC(C(=O)N[C@H](/C=C/C(=O)OCC(C)(C)C)C[C@@H]1CCNC1=O)n1cccc(NC(=O)c2cc(C)on2)c1=O` (relative stereo) [Compound 42, trans-(2′S,3′″″S,4S)-4-[2′-(3″-{[1′″-(5″″-Methylisoxazol-3″″-yl)methanoyl]amino}-2′″-oxo-2′″H-pyridin-1′″-yl)butanoylamino]-5-(2′″″-oxopyrrolidin-3′″″-yl)pent-2-enoic Acid 2,2-Dimethylpropyl Ester]: the EC50 was 168 nM in data set [1] (HRV-14, read-out: EC50); 161 nM in data set [2] (HRV-2); 152 nM in data set [2] (HRV-3); 521 nM in data set [2] (HRV-9); 402 nM in data set [2] (HRV-16); 611 nM in data set [2] (HRV-25). Further, the EC50 in data set [2] (HRV-39) came to 158 nM. For the same molecule, the CC50 in data set [3] (line of HRV-2), in data set [3] (line of HRV-3), in data set [3] (line of HRV-9), in data set [3] (line of HRV-14), in data set [3] (line of HRV-16) and in data set [3] (line of HRV-25) was over 10000 nM throughout. Moreover, the CC50 in data set [3] (line of HRV-39) was over 10000 nM. Also, the “kobs/[I] (3C protease inhibition activity)” value in data set [4] (HRV-14) is reported as 38,200 M^−1s^−1.
Consider `CCOC(=O)/C=C/[C@H](C[C@@H]1CCNC1=O)NC(=O)[C@@H](Cc1ccccc1)n1ccc2cc[nH]c2c1=O` [Compound 4], for which the kinact/KI in data set [4] (HRV-14) came out at 574 M⁻¹ s⁻¹.
On to `CCOC(=O)/C=C/[C@H](CCC(N)=O)NC(=O)[C@H](Cc1ccc(F)cc1)n1cccc(NC(=O)C(F)(F)F)c1=O` [Compound 24, trans-(2′S,4S)-6-Carbamoyl-4-{3′-(4″-fluorophenyl)-2′-[2′″-oxo-3′″-(2″″,2″″,2″″-trifluoroacetylamino)-2′″H-pyridin-1′″-yl]propionylamino}hex-2-enoic Acid Ethyl Ester], for which the kinact/KI in data set [4] (HRV-14) turned out to be 8800 M⁻¹ s⁻¹.
Consider `Cc1cc(C(=O)Nc2ccc3n(c2=O)[C@H](C(=O)N[C@H](/C=C2\CCOC2=O)C[C@@H]2CCNC2=O)CC3)no1` [Compound 38, trans-(2″S,3S,3′″S)-6-[(5′-Methylisoxazole-3′-carbonyl)amino]-5-oxo-1,2,3,5-tetrahydroindolizine-3-carboxylic Acid [2″-(2′″-oxodihydrofuran-3′″-ylidene)-1″-(2″″-oxopyrrolidin-3″″-ylmethyl)ethyl]amide], for which, in data set [1] (Rhinovirus B, HRV14, H1-HeLa, HRV-14, read-out: EC50), the EC50 stood at 16800 nM. For the same molecule, the CC50 at 2 days in data set [5] is over 100000 nM.
As for `CCOC(=O)/C=C/[C@H](C[C@@H]1CCNC1=O)NC(=O)[C@H](Cc1ccccc1)N1CCc2c(C)c[nH]c2C1=O` [Compound 45, 4S-[2S-(3-Methyl-7-oxo-1,4,5,7-tetrahydro-pyrrolo[2,3-c]pyridin-6-yl)3-phenyl-propionylamino]-5-(2-oxo-pyrrolidin-3-yl)pent-2(trans)-enoic acid ethyl ester], the kinact/KI in data set [4] (HRV-14) came to 673 M⁻¹ s⁻¹.
Turning to `Cc1cc(C(=O)Nc2cccn([C@@H](Cc3ccc(F)c(F)c3)C(=O)N[C@H](/C=C/C(=O)O)C[C@@H]3CCNC3=O)c2=O)no1` [Compound 51, trans-(2′S,3″″″S,4S)-4-[3′-(3″,4″-Difluorophenyl)-2′-(3′″-{[1″″-(5′″″-methylisoxazol-3′″″-yl)methanoyl]amino}-2″″-oxo-2″″H-pyridin-1″″-yl)propanoylamino]-5-(2″″″-oxopyrrolidin-3″″″-yl)pent-2-enoic Acid], the EC50 in data set [1] (Rhinovirus B, HRV14, H1-HeLa) is over 10000 nM; in data set [2] (Human rhinovirus sp., HRV9, H1-HeLa, HRV-9), over 1000 nM; in data set [2] (Human rhinovirus sp., HRV16, H1-HeLa, HRV-16) it was over 10000 nM; in data set [2] (Human rhinovirus sp., HRV25, H1-HeLa, HRV-25) it was over 10000 nM. The molecule further displayed a 50% cytotoxic concentration (CC50) at 2 days in data set [5] of over 10000 nM. Also, the CC50 in data set [3] (line of HRV-9), in data set [3] (line of HRV-16) and in data set [3] (line of HRV-25) was over 10000 nM each time.
As to `CC[C@@H](C(=O)N[C@H](/C=C/C(=O)OC1CCCCCC1)C[C@@H]1CCNC1=O)n1cccc(NC(=O)c2cc(C)on2)c1=O` [Compound 61, trans-(2′S,3′″″S,4S)-4-[2′-(3″-{[1′″-(5″″-Methylisoxazol-3″″-yl)methanoyl]amino}-2′″oxo-2′″H-pyridin-1′″-yl)butanoylamino]-5-(2′″″-oxopyrrolidin-3′″″-yl)pent-2-enoic Acid Cycloheptyl Ester], the kinact/KI in data set [4] (HRV-14 3C protease) was determined as 15000 M⁻¹ s⁻¹.
As to `CCOC(=O)/C=C/[C@H](C[C@@H]1CCNC1=O)NC(=O)[C@H](CC)n1cc(C(F)(F)F)cc(NC(=O)c2cc(C)on2)c1=O` [Compound 68, trans-(2′S,3″″S,4S)-4-[2′-({[1″-(5′″-Methylisoxazol-3′″-yl)methanoyl]amino}-oxotrifluoromethyl-2″H-pyridin-1″-yl)butanoylamino]-5-(2″″-oxopyrrolidin-3″″-yl)pent-2-enoic Acid Ethyl Ester], in data set [4] (HRV-14 3C protease), the kinact/KI was determined as 39500 M⁻¹ s⁻¹.
On to `Cc1cc(CCCCCCCOc2ccc(C3=NCCO3)cc2)on1` [WIN 51711, reference compound], for which the 50% effective concentration (EC50) in data set [1] (HRV-14, read-out: EC50) was 780 nM. In addition, the CC50 in data set [3] (HRV-14) is over 60000 nM.
Taken in the same sequence, the figures for `Cc1cc(CCCCCCCOc2ccc(C3=N[C@@H](C)CO3)cc2)on1` [WIN 52084, reference compound] were 70 nM and over 10000 nM.
